Results published in patent publication US6790855B2 (priority 2000, dated 2004).
Counter-ions that a name gives are not always drawn.

Legend:
mice = assay: radiant heat tailflick assay after topical administration (tail immersed in DMSO drug solution); assay type: in vivo; conditions: for Opioid ED50 Value: opioid alone or opioid component of fixed-ratio combination; for response reached in dose-response curve: tested immediately; for response reached in dose-response curve / analgesic activity in words: FIG. 2; for analgesic activity in words: dose-response; for analgesic response: constant concentration, FIG. 1a; for peak response: fixed low dose: morphine 1.5 mM, lidocaine 0.9 mM, alone or both together, FIG. 3a
subject's finger = assay: radiant light heat source finger latency after topical gel application; assay type: in vivo, human; conditions: Lidocaine alone 0.125 mg/ml or morphine alone 0.25 mg/ml gel, FIG. 7
[1] = as an analgesic and as a respiratory depressant; cited from earlier work
[2] = topical, increasing concentrations, 2 minutes, FIG. 4
[3] = 2 minutes exposure, listed as free base of lidocaine

CN1CC[C@]23CCCC[C@H]2[C@H]1Cc1ccc(O)cc13 [Levorphanol]
ED50 (mice; [2]): 5.0 mM
analgesic response in words (mice; [2]): full analgesic responses
Opioid ED50 Value (mice; topical, tailflick): 5.0 mM

CCN(CC)CC(=O)Nc1c(C)cccc1C [Lidocaine HCl]
response reached in dose-response curve (mice; 2 minutes exposure, HCl): 50-60%
analgesic activity in words (mice; 2 minutes exposure, HCl): less effective

CCN(CC)CC(=O)Nc1c(C)cccc1C [Lidocaine]
response reached in dose-response curve (mice; [3]): 75%
time of decrease to baseline levels (mice; 2 minutes exposure, time action curve over 30 minutes, FIG. 1b): ≤ 20 min
analgesic response (mice; exposure 30 seconds): 20%
analgesic response (mice; exposure 2 minutes): 70%
analgesic activity in words (mice; [3]): biphasic dose-response curve
peak response (mice): 20%
Shift (mice; lidocaine ED50, + morphine 3.0 mM vs alone): 3.1
Shift (mice; lidocaine ED50, + morphine 4.5 mM vs alone): 3.6
Shift (mice; mouse, in vivo): 2.5
ED50 (mice; topical lidocaine + morphine 1.5 mM): 1.0 mM
ED50 (mice; topical lidocaine + morphine 3.0 mM): 0.8 mM
ED50 (mice; topical lidocaine + morphine 4.5 mM): 0.7 mM
ED50 (mice; topical, drug alone): 2.5 mM
Lidocaine ED50 Value (mice; topical, tailflick, lidocaine alone (initial portion of curve) or lidocaine component of fixed-ratio combination): 2.5 mM
change in latency compared to baseline, in words (subject's finger): Neither morphine nor Lidocaine produced appreciable changes in latency

CN1CC[C@]23c4c5ccc(O)c4O[C@H]2[C@@H](O)C=C[C@H]3[C@H]1C5 [Morphine]
analgesic activity in words (mice; 2 minutes exposure): intermediate potency between the two forms of lidocaine
peak response (mice): 20%
Shift (mice; morphine ED50, + lidocaine 0.45 mM vs alone): 1.7
Shift (mice; morphine ED50, + lidocaine 0.9 mM vs alone): 4.1
Shift (mice; morphine ED50, + lidocaine 1.8 mM vs alone): 4.7
ED50 (mice; topical morphine + lidocaine 0.45 mM): 3.6 mM
ED50 (mice; topical morphine + lidocaine 0.9 mM): 1.5 mM
ED50 (mice; topical morphine + lidocaine 1.8 mM): 1.3 mM
ED50 (mice; topical, drug alone): 6.1 mM
Opioid ED50 Value (mice; topical, tailflick): 6.1 mM
change in latency compared to baseline, in words (subject's finger): Neither morphine nor Lidocaine produced appreciable changes in latency

COc1ccc2c3c1O[C@H]1[C@@H](O)C=C[C@H]4[C@@H](C2)N(C)CC[C@@]341 [codeine]
effectiveness orally relative to parenterally [1]: approximately 60%
